This is an account of results in patent USRE42890E1, “Furazanobenzimidazoles” (Basilea Pharmaceutica AG, priority 2003, dated 2011).

Where two headings read alike, the source gives them in different places. Bounds are passed on as bounds.

One experiment deals with MRC5. Description: MTS proliferation assay, MRC5. Format: cell-based. The note with it: MRC5, 72 h incubation, read-out: MTS proliferation assay IC 50 MRC5. The procedure, abridged:
(§1)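 RPMI-1640 + 5% or 10% FCS; seeded 24 h pre-dose; cpd final 10/3/1/0.3 μM, max 5% DMSO in added volume; 72 h, 37° C, 7.5% CO2; MTS 3 h; A492.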
Background: Tetrazolium dyes change colour on reduction, which living cells bring about.

A further experiment deals with HT1080. Put plainly: MTS proliferation assay, HT1080. Particulars: HT1080, 72 h incubation, read-out: MTS proliferation assay IC 50 HT1080. Format: cell-based, human. The procedure, abridged:
(§2)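 Seed cells (1.5*10^3-10^4/well) 24 h ahead; add compound, final 10/3/1/0.3 μM; incubate 72 h, 37 °C, 7.5% CO2; MTS 3 h; read A492.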

The next experiment relates to HeLa. Description: MTS proliferation assay, HeLa. Particulars: 72 h incubation, read-out: MTS proliferation assay IC 50 HeLa. Format: cell-based, human. In short, it runs like this:
as §2

The test system of a further experiment is Jurkat. Description: MTS proliferation assay, Jurkat. The format is cell-based, human. Particulars: 72 h incubation, read-out: MTS proliferation assay IC 50 Jurkat. In short, it runs like this:
as §2

The test system of a further experiment is Jily. Put plainly: MTS proliferation assay, Jily. The format is cell-based. The note with it: 72 h incubation, read-out: MTS proliferation assay IC 50 Jily. In short, it runs like this:
as §1

The test system of experiment [1] is adherent cells or suspension cells. Description: Hoechst 33342 nuclear staining (fraction of apoptotic nuclei). Format: cell-based. Details: key: 0 relating to no activity; 1 relating to weak activity comprising less than 70% of the cells; score 2 relating to strong activity comprising more than 70% of the cells.

`N#CCCNc1nonc1-c1nc2ccccc2n1CC(=O)c1ccc(Cl)cc1` [Example 6, 4-[1-(4-Chlorophenacyl)-1H-benzimidazol-2-yl]-furazan-3-yl-N-(2-cyanoethyl)-amine]: the IC50 is 100 to 1000 nM in the experiment on MRC5 (Homo sapiens); 10 to 100 nM in the experiment on HT1080 (Homo sapiens, HT-1080); 10 to 100 nM in the experiment with HeLa (Homo sapiens); less than 10 nM with Jurkat (Homo sapiens); 10 to 100 nM in the experiment on Jily. The “Hoechst 33342 nuclear staining score” value is recorded as 0 in experiment [1] (H460, conc 0.01 μm); 2 (score 2 relating to strong activity comprising more than 70% of the cells) in experiment [1] (H460, conc 0.1 μm); 2 (score 2 relating to strong activity comprising more than 70% of the cells) in experiment [1] (H460, conc 1 μm); 0 in experiment [1] (HeLa, conc 0.01 μm); 2 (score 2 relating to strong activity comprising more than 70% of the cells) in experiment [1] (HeLa, conc 0.1 μm); 2 (score 2 relating to strong activity comprising more than 70% of the cells) in experiment [1] (HeLa, conc 1 μm). In addition, the “Hoechst 33342 nuclear staining score” value in experiment [1] (Jily, conc 0.01 μm) is 2 (score 2 relating to strong activity comprising more than 70% of the cells); in experiment [1] (Jily, conc 0.1 μm), 2 (score 2 relating to strong activity comprising more than 70% of the cells); in experiment [1] (Jily, conc 1 μm) it was 2 (score 2 relating to strong activity comprising more than 70% of the cells); in experiment [1] (Jurkat, conc 0.01 μm), 2 (score 2 relating to strong activity comprising more than 70% of the cells); in experiment [1] (Jurkat, conc 0.1 μm) it was 2 (score 2 relating to strong activity comprising more than 70% of the cells); in experiment [1] (Jurkat, conc 1 μm), 2 (score 2 relating to strong activity comprising more than 70% of the cells). Further, the “Hoechst 33342 nuclear staining score” value is given as 2 (score 2 relating to strong activity comprising more than 70% of the cells) in experiment [1] (MRC5, conc 0.01 μm); 2 (score 2 relating to strong activity comprising more than 70% of the cells) in experiment [1] (MRC5, conc 0.1 μm); 2 (score 2 relating to strong activity comprising more than 70% of the cells) in experiment [1] (MRC5, conc 1 μm); 0 in experiment [1] (PBLs, conc 0.01 μm); 0 in experiment [1] (PBLs, conc 0.1 μm); 0 in experiment [1] (PBLs, conc 1 μm).
For `Nc1nonc1-c1nc2ccccc2n1COc1ccc(F)cc1` [Example 8, 4-[1-(4-Fluorophenoxymethyl)-1H-benzimidazol-2-yl]-furazan-3-ylamine], the IC50 with MRC5 (Homo sapiens) fell in the range of 100 to 1000 nM; in the experiment on HT1080 (Homo sapiens, HT-1080), 100 to 1000 nM; with HeLa (Homo sapiens), 100 to 1000 nM; with Jurkat (Homo sapiens), 100 to 1000 nM; with Jily, 100 to 1000 nM. For the same compound, the “Hoechst 33342 nuclear staining score” value in experiment [1] (H460, conc 0.01 μm) was 0; in experiment [1] (H460, conc 0.1 μm), 0; in experiment [1] (H460, conc 1 μm), 0; in experiment [1] (HeLa, conc 0.01 μm), 0; in experiment [1] (HeLa, conc 0.1 μm), 0; in experiment [1] (HeLa, conc 1 μm) it was 1 (1 relating to weak activity comprising less than 70% of the cells). For the same compound, the “Hoechst 33342 nuclear staining score” value in experiment [1] (Jily, conc 0.01 μm) was 0; in experiment [1] (Jily, conc 0.1 μm) it was 0; in experiment [1] (Jily, conc 1 μm), 0; in experiment [1] (Jurkat, conc 0.01 μm), 0; in experiment [1] (Jurkat, conc 0.1 μm), 0; in experiment [1] (Jurkat, conc 1 μm), 1 (1 relating to weak activity comprising less than 70% of the cells). Also, the “Hoechst 33342 nuclear staining score” value is on record as 0 in experiment [1] (MRC5, conc 0.01 μm); 0 in experiment [1] (MRC5, conc 0.1 μm); 0 in experiment [1] (MRC5, conc 1 μm); 0 in experiment [1] (PBLs, conc 0.01 μm); 0 in experiment [1] (PBLs, conc 0.1 μm); 0 in experiment [1] (PBLs, conc 1 μm).
As to `Nc1nonc1-c1nc2ccccc2n1CC(=O)c1ccc2ccccc2c1` [Example 42], the IC50 was 100 to 1000 nM in the experiment on MRC5; 10 to 100 nM in the experiment with HT1080; 10 to 100 nM in the experiment on HeLa; 10 to 100 nM in the experiment on Jurkat; 10 to 100 nM in the experiment on Jily. Besides, the “Hoechst 33342 nuclear staining score” value in experiment [1] (H460, conc 0.01 μm) was 0; in experiment [1] (H460, conc 0.1 μm), 2 (score 2 relating to strong activity comprising more than 70% of the cells); in experiment [1] (H460, conc 1 μm), 2 (score 2 relating to strong activity comprising more than 70% of the cells); in experiment [1] (HeLa, conc 0.01 μm), 0; in experiment [1] (HeLa, conc 0.1 μm), 1 (1 relating to weak activity comprising less than 70% of the cells); in experiment [1] (HeLa, conc 1 μm), 2 (score 2 relating to strong activity comprising more than 70% of the cells). Also, the “Hoechst 33342 nuclear staining score” value is listed as 0 in experiment [1] (Jily, conc 0.01 μm); 2 (score 2 relating to strong activity comprising more than 70% of the cells) in experiment [1] (Jily, conc 0.1 μm); 2 (score 2 relating to strong activity comprising more than 70% of the cells) in experiment [1] (Jily, conc 1 μm); 0 in experiment [1] (Jurkat, conc 0.01 μm); 2 (score 2 relating to strong activity comprising more than 70% of the cells) in experiment [1] (Jurkat, conc 0.1 μm); 2 (score 2 relating to strong activity comprising more than 70% of the cells) in experiment [1] (Jurkat, conc 1 μm). Besides, the “Hoechst 33342 nuclear staining score” value is listed as 0 in experiment [1] (MRC5, conc 0.01 μm); 2 (score 2 relating to strong activity comprising more than 70% of the cells) in experiment [1] (MRC5, conc 0.1 μm); 2 (score 2 relating to strong activity comprising more than 70% of the cells) in experiment [1] (MRC5, conc 1 μm); 0 in experiment [1] (PBLs, conc 0.01 μm); 0 in experiment [1] (PBLs, conc 0.1 μm); 0 in experiment [1] (PBLs, conc 1 μm).
For `COc1cc(C(=O)Cn2c(-c3nonc3N)nc3ccccc32)ccc1OC(C)=O` [Example 75], the IC50 in the experiment on MRC5, in the experiment on HT1080, with HeLa, with Jurkat and in the experiment on Jily was 100 to 1000 nM in each case. For the same compound, the “Hoechst 33342 nuclear staining score” value in experiment [1] (H460, conc 0.01 μm) is given as 0; in experiment [1] (H460, conc 0.1 μm), 0; in experiment [1] (H460, conc 1 μm) it was 2 (score 2 relating to strong activity comprising more than 70% of the cells); in experiment [1] (HeLa, conc 0.01 μm) it was 0; in experiment [1] (HeLa, conc 0.1 μm), 0; in experiment [1] (HeLa, conc 1 μm), 1 (1 relating to weak activity comprising less than 70% of the cells). The “Hoechst 33342 nuclear staining score” value in experiment [1] (Jily, conc 0.01 μm) is given as 0; in experiment [1] (Jily, conc 0.1 μm) it was 0; in experiment [1] (Jily, conc 1 μm), 2 (score 2 relating to strong activity comprising more than 70% of the cells); in experiment [1] (Jurkat, conc 0.01 μm) it was 0; in experiment [1] (Jurkat, conc 0.1 μm) it was 0; in experiment [1] (Jurkat, conc 1 μm), 2 (score 2 relating to strong activity comprising more than 70% of the cells). Moreover, the “Hoechst 33342 nuclear staining score” value in experiment [1] (MRC5, conc 0.01 μm) is recorded as 0; in experiment [1] (MRC5, conc 0.1 μm) it was 0; in experiment [1] (MRC5, conc 1 μm), 1 (1 relating to weak activity comprising less than 70% of the cells); in experiment [1] (PBLs, conc 0.01 μm), 0; in experiment [1] (PBLs, conc 0.1 μm), 0; in experiment [1] (PBLs, conc 1 μm), 0.
